Experimental data: US20240368209A1, “GEMCITABINE ANTICANCER DERIVATIVE AND ANTICANCER PHARMACEUTICAL USE” (ASCENTAWITS PHARMACEUTICALS, LTD., priority 2021, published 2024)
Where two headings read alike, the source gives them in different places.

System: H460 non-small cell lung cancer human tumor cell line
Assay: In vitro human tumor cell line cytotoxicity (proliferation) assay on H460, CTG, with or without AST-3021
Format: cell-based
Settings: for IC50: Homo sapiens
Description: In vitro human tumor cell line cytotoxicity assay was used.
In vitro proliferation data on the H460 non-small cell lung cancer human tumor cell line (cell line which highly expresses AKR1C3) is reported below in the compound table.
IC50 values were obtained with the following steps:
Specifically, exponentially growing cells were seeded at a density of 2×10^3 cells/100 μL/well in a 96-well plate and incubated at 37° C. in 5% CO2, 95% air and 100% relative humidity for 24 hours. The test compound was administered alone: 24 hours after cell plating, the compound acted alone, 99 μL of growth medium per well was added, and 1 μL of the compound prepared at 200× was added, and the plate was shaken gently to ensure even mixing, then placed into an incubator of 37° C., 5% CO2. After further cultivation for 72 hours, the number of live cells was detected using CTG. The CTG detection method was as follows: the cell plate to be tested was placed at room temperature to equilibrate for 30 minutes, and 100 μL of medium per well was discarded. 25 μL of CTG reagent (CellTiter-Glo® kit) per well was added, and the plate was placed in a high-speed shaker to oscillate for 2 minutes, and placed at room temperature in the dark for 30 minutes. The chemiluminescence signal value was read using a multimode microplate reader, with a read time of 1000 ms.
Similarly, in order to further verify that the compounds were activated by human AKR1C3 (aldosterone reductase family 1 member C3), the effect of some of the compounds on the proliferation of H460 cancer cells was tested with pretreatment with a specific AKR1C3 enzyme inhibitor AST-3021 (3 μM). The detailed experimental procedure was as follows: 24 hours after cell plating, 98 μL of growth medium per well was added, and 1 μL of 200×compound AST-3021 was added to each well, and the plate was shaken gently to ensure even mixing, and then placed into an incubator; after 2 hours, 1 μL of the test compound prepared at 200× was added, and the plate was shaken gently to ensure even mixing and then laced into an incubator of 37° C., 5% CO2. The inhibitor used was compound 36, i.e.
in Flanagan et al., Bioorganic and Medicinal Chemistry (2014), page 962-977, and is referred to as AST-3021 in this invention. The values measured in this case are values corresponding to +AST-3021 IC50 (nM) in Table 1.
The value corresponding to +AST-3021 IC50 (nM) divided by the value corresponding to IC50 (nM) is the specific activation ratio. The relative magnitude of the specific activation ratio can be used to evaluate whether this compound is a cytotoxic compound activated by human AKR1C3 (aldosterone reductase family 1 member C3): when the specific activation ratio is less than 1, it is considered that the compound is not activated by human AKR1C3 (aldosterone reductase family 1 member C3); when the specific activation ratio is greater than 1, it is considered that the compound is activated by human AKR1C3 (aldosterone reductase family 1 member C3), and the higher the value, the higher the activation degree and the selectivity of AKR1C3.

[1] = NCI-H460, compound alone, 72 hours, read-out: IC50
[2] = NCI-H460, pretreatment with AKR1C3 inhibitor AST-3021 (3 μM), read-out: +AST-3021 IC50

SMILES | specific activation ratio (+AST-3021 IC50/IC50) | IC50 [1] [nM] | IC50 [2] [nM]
CCN(CC)P(=O)(OCc1ccc([N+](=O)[O-])c(Oc2ccc(-c3ccc(F)cc3)c(F)c2)c1)OCC1OC(n2ccc(N)nc2=O)C(F)(F)C1O (stereo not drawn) [Compound D2, reference compound] | 45.1 | 96.9 | 4370
Nc1ccn(C2OC(COP(=O)(OCc3ccc([N+](=O)[O-])c(Oc4ccc(-c5ccc(F)cc5)c(F)c4)c3)Oc3ccccc3)C(O)C2(F)F)c(=O)n1 (stereo not drawn) [Compound D6, reference compound] | 0.54 | 20.6 | 11.2
Nc1ccn(C2OC(COP(=O)(OCc3ccc([N+](=O)[O-])c(Oc4ccc(C(F)(F)F)cc4)c3)Oc3ccccc3)C(O)C2(F)F)c(=O)n1 (stereo not drawn) [Compound D7, reference compound] | 0.77 | 50.3 | 38.9
CC(OP(=O)(OCC1OC(n2ccc(N)nc2=O)C(F)(F)C1O)N(C)C)c1ccc([N+](=O)[O-])c(Oc2ccc(-c3ccc(F)cc3)c(F)c2)c1 (stereo not drawn) [Compound D9, reference compound] | 56.5 | 67.8 | 3830
CNP(=O)(OCc1ccc([N+](=O)[O-])c(Oc2ccc(-c3ccc(F)cc3)c(F)c2)c1)OCC1OC(n2ccc(N)nc2=O)C(F)(F)C1O (stereo not drawn) [Compound H1] | 24.2 | 29.4 | 712
CCNP(=O)(OCc1ccc([N+](=O)[O-])c(Oc2ccc(-c3ccc(F)cc3)c(F)c2)c1)OCC1OC(n2ccc(N)nc2=O)C(F)(F)C1O (stereo not drawn) [Compound H2] | 47.8 | 19.9 | 951
Nc1ccn(C2OC(COP(=O)(NCCBr)OCc3ccc([N+](=O)[O-])c(Oc4ccc(-c5ccc(F)cc5)c(F)c4)c3)C(O)C2(F)F)c(=O)n1 (stereo not drawn) [Compound H4] | 6.2 | 5.15 | 31.7
CNP(=O)(OCc1ccc([N+](=O)[O-])c(Oc2ccc(C(F)(F)F)cc2)c1)OCC1OC(n2ccc(N)nc2=O)C(F)(F)C1O (stereo not drawn) [Compound H5] | 4.2 | 117 | 499
CCNP(=O)(OCc1ccc([N+](=O)[O-])c(Oc2ccc(C(F)(F)F)cc2)c1)OCC1OC(C2N=CC(N)=NC2=O)C(F)(F)C1O (stereo not drawn) [Compound H6] | 12.9 | 178 | 2300
CC(C)CNP(=O)(OCc1ccc([N+](=O)[O-])c(Oc2ccc(-c3ccc(F)cc3)c(F)c2)c1)OCC1OC(C2N=CC(N)=NC2=O)C(F)(F)C1O (stereo not drawn) [Compound H7] | 61.3 | 26.8 | 1640
NC1=NC(=O)C(C2OC(COP(=O)(NCc3ccccc3)OCc3ccc([N+](=O)[O-])c(Oc4ccc(-c5ccc(F)cc5)c(F)c4)c3)C(O)C2(F)F)N=C1 (stereo not drawn) [Compound H8] | 44.8 | 67.5 | 3020
NC1=NC(=O)C(C2OC(COP(=O)(NCc3ccccc3)OCc3ccc([N+](=O)[O-])c(Oc4ccc(C(F)(F)F)cc4)c3)C(O)C2(F)F)N=C1 (stereo not drawn) [Compound H9] | 23.2 | 78.2 | 1810
CC(C)CNP(=O)(OCc1ccc([N+](=O)[O-])c(Oc2ccc(C(F)(F)F)cc2)c1)OCC1OC(C2N=CC(N)=NC2=O)C(F)(F)C1O (stereo not drawn) [Compound H10] | 27.7 | 105 | 2900
CCNP(=O)(OCc1ccc([N+](=O)[O-])c(Oc2ccc(C(=O)N3CCCCC3)cc2)c1)OCC1OC(n2ccc(N)nc2=O)C(F)(F)C1O (stereo not drawn) [Compound H13] | 9.4 | 393 | 3680
CCNP(=O)(OCc1ccc([N+](=O)[O-])c(Oc2ccc(C(=O)N3CCC(C(F)(F)F)CC3)cc2)c1)OCC1OC(n2ccc(N)nc2=O)C(F)(F)C1O (stereo not drawn) [Compound H14] | 1.9 | 1770 | 3300
CCNP(=O)(OCc1ccc([N+](=O)[O-])c(Oc2cccc(C(=O)N3CCCCC3)c2)c1)OCC1OC(n2ccc(N)nc2=O)C(F)(F)C1O (stereo not drawn) [Compound H15] | 5.0 | 486 | 2420

SMILES | specific activation ratio (+AST-3021 IC50/IC50) | IC50 [1] [nM] | IC50 [2] [nM]
CCNP(=O)(OCc1ccc([N+](=O)[O-])c(Oc2cccc(C(=O)N3CCC(C(F)(F)F)CC3)c2)c1)OCC1OC(n2ccc(N)nc2=O)C(F)(F)C1O (stereo not drawn) [Compound H16] | 8.9 | 377 | 3370
Nc1ccn(C2OC(COP(=O)(NC3CCCCC3)OCc3ccc([N+](=O)[O-])c(Oc4ccc(-c5ccc(F)cc5)c(F)c4)c3)C(O)C2(F)F)c(=O)n1 (stereo not drawn) [Compound H17] | 27.2 | 397 | 10800
Nc1ccn(C2OC(COP(=O)(NC3CCCCC3)OCc3ccc([N+](=O)[O-])c(Oc4ccc(C(F)(F)F)cc4)c3)C(O)C2(F)F)c(=O)n1 (stereo not drawn) [Compound H18] | 3.7 | 461 | 1700
CCNP(=O)(OCc1ccc([N+](=O)[O-])c(Oc2ccc3ncccc3c2)c1)OCC1OC(n2ccc(N)nc2=O)C(F)(F)C1O (stereo not drawn) [Compound H19] | 3.4 | 150 | 510
CCNP(=O)(OCc1ccc([N+](=O)[O-])c(Oc2ccc3nc(C)sc3c2)c1)OCC1OC(n2ccc(N)nc2=O)C(F)(F)C1O (stereo not drawn) [Compound H20] | 6.2 | 232 | 1430
CCNP(=O)(OCC1OC(n2ccc(N)nc2=O)C(F)(F)C1O)OC(C)c1ccc([N+](=O)[O-])c(Oc2ccc(-c3ccc(F)cc3)c(F)c2)c1 (stereo not drawn) [Compound H21] | 34.8 | 127 | 4410
CC(OP(=O)(NCCBr)OCC1OC(n2ccc(N)nc2=O)C(F)(F)C1O)c1ccc([N+](=O)[O-])c(Oc2ccc(-c3ccc(F)cc3)c(F)c2)c1 (stereo not drawn) [Compound H22] | 19.2 | 124 | 2370
CNP(=O)(OCC1OC(n2ccc(N)nc2=O)C(F)(F)C1O)OC(C)c1ccc([N+](=O)[O-])c(Oc2ccc(C(F)(F)F)cc2)c1 (stereo not drawn) [Compound H23] | 29.8 | 379 | 11300
CCNP(=O)(OCC1OC(n2ccc(N)nc2=O)C(F)(F)C1O)OC(C)c1ccc([N+](=O)[O-])c(Oc2ccc(C(=O)N3CCCCC3)cc2)c1 (stereo not drawn) [Compound H24] | 19.1 | 1120 | 21400
CCNP(=O)(OCC1OC(n2ccc(N)nc2=O)C(F)(F)C1O)OC(C)c1ccc([N+](=O)[O-])c(Oc2cccc(C(=O)N3CCCCC3)c2)c1 (stereo not drawn) [Compound H25] | 9.6 | 515 | 4940
CCNP(=O)(OCc1ccc([N+](=O)[O-])c(Oc2ccc(-c3ccc(F)cn3)cc2)c1)OCC1OC(n2ccc(N)nc2=O)C(F)(F)C1O (stereo not drawn) [Compound H28] | 20.4 | 233 | 4760
Nc1ccn(C2OC(COP(=O)(NC3CCCC3)OCc3ccc([N+](=O)[O-])c(Oc4ccc(-c5ccc(F)cc5)c(F)c4)c3)C(O)C2(F)F)c(=O)n1 (stereo not drawn) [Compound H29] | 47.17 | 82.2 | 3880
CC(C)NP(=O)(OCc1ccc([N+](=O)[O-])c(Oc2cccc(C(=O)N3CCCCC3)c2)c1)OCC1OC(n2ccc(N)nc2=O)C(F)(F)C1O (stereo not drawn) [Compound H35] | 8.6 | 454 | 3900
CC(C)NP(=O)(OCc1ccc([N+](=O)[O-])c(Oc2ccc(C(=O)N3CCCCC3)cc2)c1)OCC1OC(n2ccc(N)nc2=O)C(F)(F)C1O (stereo not drawn) [Compound H36] | 3.1 | 382 | 1170
CC(C)NP(=O)(OCc1ccc([N+](=O)[O-])c(Oc2ccc(-c3ccc(F)cc3)cc2)c1)OCC1OC(n2ccc(N)nc2=O)C(F)(F)C1O (stereo not drawn) [Compound H38] | 507.6 | 65.2 | 33100
